Reference: US7365225B2, “Aryl dicarboxamides” (Laboratoires Serono SA, priority 2003, dated 2008)

Experiments:
Format in all cases: biochemical
SHP-1 = target: T1, SHP-1 (Homo sapiens, UniProt P29350); experiment: PTP Enzyme Assay (DiFMUP), SHP-1; conditions: catalytic core of human recombinant PTP; 20 μM DiFMUP; 30 minutes at room temperature; read-out: IC50 value in respect of SHP-1
T1 construct: using the catalytic core of a human recombinant PTP as the enzyme; made in house
T1 sequence (P29350 244-515 limits assumed): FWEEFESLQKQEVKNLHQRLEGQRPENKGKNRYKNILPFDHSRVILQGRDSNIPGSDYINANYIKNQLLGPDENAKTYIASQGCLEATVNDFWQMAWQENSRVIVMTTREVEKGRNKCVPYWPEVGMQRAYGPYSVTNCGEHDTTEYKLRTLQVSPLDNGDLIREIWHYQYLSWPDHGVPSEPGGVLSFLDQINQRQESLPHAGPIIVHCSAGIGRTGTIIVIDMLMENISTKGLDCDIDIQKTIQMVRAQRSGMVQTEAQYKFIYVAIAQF
Procedure: (§1) The PTP Enzyme Assay aims at determining the extent of inhibition of PTPs, e.g. of PTP1B, SHP-1, SHP-2, or GLEPP-1 in the presence of a test compound of formula (I). The inhibition is illustrated by IC50 values which denote the concentration of test compound necessary to achieve an inhibition of 50% of said PTP's using the following concentration of the PTP substrate DiFMUP: • 5 μM DiFMUP for PTP1B; • 20 μM DiFMUP for SHP-1 and SHP-2; • 30 μM DiFMUP for GLEPP-1. a) PTPs Cloning […]
(§2) Assays were performed in a 96 well plate format, using the catalytic core of a human recombinant PTP as the enzyme and 6,8-DiFluoro-4-MethylUmbelliferyl Phosphate (DiFMUP, Molecular Probes, D-6567) as a substrate. […] The reaction ran for 30 minutes at room temperature before reading the fluorescence intensity (integral or intensity) on a Perkin-Elmer Victor 2 spectrofluorimeter (excitation of 6,8-difluoro-7-hydroxy coumarin is at 355 nm, the emission at 460 nm, for 0.1 s). The percentage of inhibition is determined by measuring the relative fluorescence ion absence of a test compound (PTP inhibitor), i.e. with the solvent alone (5% DMSO). The IC50 values for inhibition were determined in triplicates.

SHP-2 = target: T2, SHP-2 (Homo sapiens, UniProt Q06124); experiment: PTP Enzyme Assay (DiFMUP), SHP-2; conditions: catalytic core of human recombinant PTP; 20 μM DiFMUP; 30 minutes at room temperature; read-out: IC50 value in respect of SHP-2
T2 construct: using the catalytic core of a human recombinant PTP as the enzyme; made in house
T2 sequence (Q06124 247-517 limits assumed): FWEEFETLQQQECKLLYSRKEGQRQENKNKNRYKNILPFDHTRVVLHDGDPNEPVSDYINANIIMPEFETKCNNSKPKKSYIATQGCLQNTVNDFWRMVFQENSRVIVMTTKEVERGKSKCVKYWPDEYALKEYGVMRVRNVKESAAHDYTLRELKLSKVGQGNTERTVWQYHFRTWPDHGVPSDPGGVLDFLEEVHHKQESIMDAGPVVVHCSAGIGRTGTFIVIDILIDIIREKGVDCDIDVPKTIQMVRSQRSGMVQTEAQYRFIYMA
Procedure: as §1, §2

PTP1B = target: T3, PTP1B (Homo sapiens, UniProt P18031); experiment: PTP Enzyme Assay (DiFMUP), PTP1B; conditions: catalytic core of human recombinant PTP; 5 μM DiFMUP; 30 minutes at room temperature; read-out: IC50 value in respect of PTP1B
T3 construct: using the catalytic core of a human recombinant PTP as the enzyme; made in house
T3 sequence (P18031 3-277 limits assumed): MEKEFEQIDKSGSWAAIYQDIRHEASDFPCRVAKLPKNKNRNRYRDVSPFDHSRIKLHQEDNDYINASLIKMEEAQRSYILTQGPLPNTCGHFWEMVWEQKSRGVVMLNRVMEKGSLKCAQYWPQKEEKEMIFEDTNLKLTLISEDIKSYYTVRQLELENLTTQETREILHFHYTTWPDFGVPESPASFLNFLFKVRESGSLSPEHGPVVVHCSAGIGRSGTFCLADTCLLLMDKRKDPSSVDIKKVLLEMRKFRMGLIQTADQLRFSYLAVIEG
Procedure: The PTP Enzyme Assay aims at determining the extent of inhibition of PTPs, e.g. of PTP1B, SHP-1, SHP-2, or GLEPP-1 in the presence of a test compound of formula (I). The inhibition is illustrated by IC50 values which denote the concentration of test compound necessary to achieve an inhibition of 50% of said PTP's using the following concentration of the PTP substrate DiFMUP: • 5 μM DiFMUP for PTP1B; • 20 μM DiFMUP for SHP-1 and SHP-2; • 30 μM DiFMUP for GLEPP-1. a) PTPs Cloning
The cloning and expression of the catalytic domain e.g. of PTP1B, may be performed as described in J. Biol. Chem. 2000, 275(13), pp 9792-9796. […]
as §2

GLEPP-1 = target: T4, GLEPP-1 (Homo sapiens, UniProt Q16827); experiment: PTP Enzyme Assay (DiFMUP), GLEPP-1; conditions: catalytic core of human recombinant PTP; 30 μM DiFMUP; 30 minutes at room temperature; read-out: IC50 value in respect of GLEPP-1
T4 construct: using the catalytic core of a human recombinant PTP as the enzyme; made in house
T4 sequence (Q16827 938-1195 limits assumed): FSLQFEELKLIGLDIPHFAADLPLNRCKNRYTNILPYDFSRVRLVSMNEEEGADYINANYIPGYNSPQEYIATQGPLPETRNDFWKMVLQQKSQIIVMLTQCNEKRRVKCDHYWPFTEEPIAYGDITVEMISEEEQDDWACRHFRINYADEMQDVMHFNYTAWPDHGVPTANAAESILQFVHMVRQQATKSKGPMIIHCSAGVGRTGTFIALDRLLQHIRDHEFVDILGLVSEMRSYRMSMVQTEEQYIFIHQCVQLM
Procedure: as §1, §2

- IC50 (SHP-1): 4000 nM
- IC50 (SHP-2): 1900 nM
- IC50 (PTP1B): 1000 nM
- IC50 (GLEPP-1): 1200 nM
Structure (SMILES): O=C(NCc1ccc(Oc2ccccc2)cc1)c1ccc(CN(C(=O)CCC2CCCC2)c2ccc(O)c(C(=O)O)c2)cc1 [Example 1, 5-[(3-cyclopentylpropanoyl)(4-{[(4-phenoxybenzyl)amino]carbonyl}benzyl)amino]-2-hydroxybenzoic acid]
